Reference: patent US12581252B2, “Substituted pyrrolo[3,4-b]pyridines as PI3K-α inhibitors” (Relay Therapeutics, Inc., priority 2020, dated 2026)

Molecular target: H1047R PIK3CA enzyme (Homo sapiens, UniProt P42336, H1047R)
Assay: ADP-Glo Biochemical PIK3CA Kinase Assay

Chain of H1047R PIK3CA enzyme (P42336 whole entry H1047R): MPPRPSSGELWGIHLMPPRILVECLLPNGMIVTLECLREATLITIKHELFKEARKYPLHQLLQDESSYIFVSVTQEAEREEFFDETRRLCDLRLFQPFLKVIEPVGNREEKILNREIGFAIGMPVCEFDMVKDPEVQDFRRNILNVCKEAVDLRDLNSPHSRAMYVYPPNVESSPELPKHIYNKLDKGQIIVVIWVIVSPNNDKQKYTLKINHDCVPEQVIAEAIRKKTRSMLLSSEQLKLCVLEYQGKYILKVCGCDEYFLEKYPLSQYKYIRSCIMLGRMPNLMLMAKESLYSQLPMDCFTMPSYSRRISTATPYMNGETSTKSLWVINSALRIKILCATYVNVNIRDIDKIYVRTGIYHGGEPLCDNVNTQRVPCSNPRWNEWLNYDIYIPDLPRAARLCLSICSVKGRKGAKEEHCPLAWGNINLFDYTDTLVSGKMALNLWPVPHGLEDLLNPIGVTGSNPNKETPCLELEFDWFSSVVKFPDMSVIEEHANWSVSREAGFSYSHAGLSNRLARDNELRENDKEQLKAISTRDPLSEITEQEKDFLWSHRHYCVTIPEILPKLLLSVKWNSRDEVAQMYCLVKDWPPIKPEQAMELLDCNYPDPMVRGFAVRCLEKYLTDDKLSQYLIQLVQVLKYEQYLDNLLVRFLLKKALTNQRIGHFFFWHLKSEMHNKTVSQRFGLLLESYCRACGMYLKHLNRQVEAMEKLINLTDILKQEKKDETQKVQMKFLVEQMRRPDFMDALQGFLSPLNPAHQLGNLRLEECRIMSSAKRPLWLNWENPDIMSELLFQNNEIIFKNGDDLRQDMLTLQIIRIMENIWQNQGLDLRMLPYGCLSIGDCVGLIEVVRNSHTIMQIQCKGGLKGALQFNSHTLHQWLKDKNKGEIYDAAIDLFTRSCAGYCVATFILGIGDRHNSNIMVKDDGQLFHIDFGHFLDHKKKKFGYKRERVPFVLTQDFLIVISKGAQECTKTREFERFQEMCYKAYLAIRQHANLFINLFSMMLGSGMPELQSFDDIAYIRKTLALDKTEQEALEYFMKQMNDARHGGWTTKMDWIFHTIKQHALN
Chain of H1047R PIK3CA enzyme (P27986 whole entry partner): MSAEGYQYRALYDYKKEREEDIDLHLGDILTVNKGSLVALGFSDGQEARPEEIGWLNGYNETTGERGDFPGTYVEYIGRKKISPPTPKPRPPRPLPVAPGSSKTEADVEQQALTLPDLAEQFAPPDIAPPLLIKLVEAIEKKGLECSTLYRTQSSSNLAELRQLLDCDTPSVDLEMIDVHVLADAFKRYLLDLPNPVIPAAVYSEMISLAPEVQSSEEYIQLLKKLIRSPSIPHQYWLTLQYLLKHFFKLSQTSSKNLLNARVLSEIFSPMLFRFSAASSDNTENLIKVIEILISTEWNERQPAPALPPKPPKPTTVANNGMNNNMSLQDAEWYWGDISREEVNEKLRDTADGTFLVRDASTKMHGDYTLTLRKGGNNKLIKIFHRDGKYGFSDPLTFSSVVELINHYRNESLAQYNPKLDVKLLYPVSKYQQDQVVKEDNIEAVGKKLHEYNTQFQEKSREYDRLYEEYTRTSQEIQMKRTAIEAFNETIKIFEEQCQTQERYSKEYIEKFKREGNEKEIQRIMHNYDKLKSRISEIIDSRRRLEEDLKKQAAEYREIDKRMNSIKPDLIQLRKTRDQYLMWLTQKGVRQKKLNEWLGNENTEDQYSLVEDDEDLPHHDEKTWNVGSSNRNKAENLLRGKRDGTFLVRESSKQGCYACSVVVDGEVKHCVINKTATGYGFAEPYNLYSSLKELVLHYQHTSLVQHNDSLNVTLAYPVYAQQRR

Row | Structure (SMILES) | IC50
1 | O=C1N[C@H](c2cc(F)ccc2Cl)c2c(NC(=O)N3C[C@@](O)(C(F)(F)F)c4ccccc43)cc(Cl)cc21 (single isomer, unassigned) [Compound I-2506] | 1 to 10 µM
2 | O=C(Nc1cc(-c2ccc3ncnn3c2)cc2c1C(c1cc(F)ccc1Cl)NC2=O)c1cc(CO)cc(C(F)(F)F)c1 (stereo not drawn) [Compound I-1773] | 10 to 100 µM
3 | Cc1ccccc1C1NC(=O)c2cccc(NC(=O)c3ncc4ccc(Cl)cn34)c21 (stereo not drawn) [Compound I-151] | 10 to 100 µM
4 | COc1cc(-c2ccc3ncnn3c2)cc2c1C(c1cc(F)ccc1Cl)NC2=O (stereo not drawn) [Compound I-1973] | 10 to 100 µM
5 | CCC[C@]1(O)CN(C(=O)Nc2cccc3c2[C@H](c2cc(F)ccc2Cl)NC3=O)c2ccc(F)cc21 (single isomer, unassigned) [Compound I-2458] | 1 to 10 µM
6 | O=C1NC(c2cc(F)ccc2Cl)c2c(Nc3nncc4ccccc34)cc(Br)cc21 (stereo not drawn) [Compound I-760] | 10 to 100 µM
7 | O=C1N[C@H](c2cc(F)ccc2Cl)c2c(NC(=O)N3C[C@](O)(C(F)F)c4cc(F)ccc43)cc(F)cc21 (single isomer, unassigned) [Compound I-2634] | 1 to 10 µM
8 | O=C(Nc1cccc2c1C(c1cc(O)ccc1Cl)NC2=O)c1cc(O)cc(C(F)(F)F)c1 (stereo not drawn) [Compound I-415] | 10 to 100 µM
9 | O=C(Cc1c(F)ccc(F)c1F)Nc1cc(Br)cc2c1C(c1cc(F)ccc1Cl)NC2=O (stereo not drawn) [Compound I-563] | 10 to 100 µM
10 | O=C1N[C@H](c2cc(F)ccc2Cl)c2c(NC(=O)N3C[C@H](O)c4ccccc43)cc(Br)cc21 (single isomer, unassigned) [Compound I-1513] | 0.1 to 0.5 µM
11 | O=C1NC(c2cc(F)ccc2Cl)c2c(NC(=O)C3CCCCO3)cc(-c3ccc4ncnn4c3)cc21 (stereo not drawn) [Compound I-1803] | 10 to 100 µM
12 | O=C(Nc1cc(Br)cc2c1C(c1cc(F)ccc1Cl)NC2=O)c1cccc(F)c1 (stereo not drawn) [Compound I-526] | 1 to 10 µM
13 | O=C1NC(c2cc(F)ccc2Cl)c2c1cccc2-c1cc2c(Cl)cc(F)cc2[nH]1 (stereo not drawn) [Compound I-1317] | 0.1 to 0.5 µM
14 | COc1ccc(C(=O)Nc2cc(Br)cc3c2C(c2cc(F)ccc2Cl)NC3=O)cc1C(F)(F)F (stereo not drawn) [Compound I-877] | 0.5 to 1 µM
15 | O=C(Nc1cccc2c1C(c1cc(F)ccc1Cl)NC2=O)c1ncc(Br)s1 (stereo not drawn) [Compound I-2112] | 10 to 100 µM
16 | O=C(Nc1ccnc2c1C(c1ccccc1Cl)NC2=O)c1ccnc2c1CCC2 (stereo not drawn) [Compound I-240] | 10 to 100 µM
17 | N#CCC(=O)Nc1cc(-c2ccc3ncnn3c2)cc2c1C(c1cc(F)ccc1Cl)NC2=O (stereo not drawn) [Compound I-2000] | 10 to 100 µM
18 | N#Cc1ccccc1C(=O)Nc1cc(Br)cc2c1C(c1cc(F)ccc1Cl)NC2=O (stereo not drawn) [Compound I-639] | 10 to 100 µM
19 | N#CC1(COc2cc(NC(=O)N3C[C@H](O)c4cc(F)ccc43)c3c(c2)C(=O)N[C@@H]3c2cc(F)ccc2Cl)CC1 (single isomer, unassigned) [Compound I-2554] | 0.1 to 0.5 µM
20 | N#Cc1cc(-c2ccc3ncnn3c2)cc2c1C(c1cc(F)ccc1Cl)NC2=O (stereo not drawn) [Compound I-1801] | 1 to 10 µM
21 | O=C(Nc1cccc2c1[C@H]([C@@H]1CCCC(F)(F)C1)NC2=O)c1cc(F)cc(C(F)(F)F)c1 [Compound I-1752] | 1 to 10 µM
22 | O=C1NC(c2cc(F)ccc2Cl)c2c(NC(=O)[C@@H]3CC[C@@H](O)C3)cc(Br)cc21 (single isomer, unassigned) [Compound I-1976] | 10 to 100 µM

Row | Structure (SMILES) | IC50
23 | O=C1N[C@@H](c2cc(F)ccc2Cl)c2c(NC(=O)N3C[C@H](O)c4cc(F)ccc43)cc(-c3ccc(=O)n(C(F)F)c3)cc21 (single isomer, unassigned) [Compound I-2450] | 1 to 10 µM
24 | CC1(C(=O)Nc2cc(Br)cc3c2C(c2cc(F)ccc2Cl)NC3=O)CCCc2ccccc21 (stereo not drawn) [Compound I-634] | 1 to 10 µM
25 | CN(C)/C=N/c1cc(Br)cc2c1C(c1cc(F)ccc1Br)NC2=O (stereo not drawn) [Compound I-326] | 10 to 100 µM
26 | O=C(Nc1cc(NC2=NCC3(CC3)O2)cc2c1C(c1cc(F)ccc1Cl)NC2=O)c1cc(F)cc(C(F)(F)F)c1 (stereo not drawn) [Compound I-2327] | 0.1 to 0.5 µM
27 | N#Cc1cnc2c(F)cc(-c3cc(NC(=O)c4cc(F)cc(C(F)(F)F)c4)c4c(c3)C(=O)N[C@@H]4c3cc(F)ccc3Cl)cn12 [Compound I-1855] | 0.5 to 1 µM
28 | O=C(Nc1cccc2c(=O)[nH]n(-c3cccc(Cl)c3)c12)c1cc(F)cc(C(F)(F)F)c1 [Compound I-950] | 1 to 10 µM
29 | O=C(Nc1cccc2c1C(C1CCCCN1)NC2=O)c1cc(F)cc(C(F)(F)F)c1 (stereo not drawn) [Compound I-1675] | 1 to 10 µM
30 | Cc1ccccc1C1NC(=O)c2cccc(NC(=O)c3cc(F)cc4c(C(=O)C(F)(F)F)c[nH]c34)c21 (stereo not drawn) [Compound I-408] | 10 to 100 µM
31 | CNc1cc(NC(=O)N2C[C@](O)(C(F)(F)F)c3cc(F)ccc32)c2c(c1)C(=O)N[C@@H]2c1cc(F)ccc1Cl (single isomer, unassigned) [Compound I-2641] | 0.5 to 1 µM
32 | O=C1N[C@H](c2cc(F)ccc2Cl)c2c(NC(=O)N3C[C@@](O)(C(F)(F)F)c4cc(F)ccc43)ccc(-n3cccn3)c21 (single isomer, unassigned) [Compound I-2496] | 1 to 10 µM
33 | O=C1NCc2c(NC(=O)c3csc4c3CCCC4)cccc21 [Compound I-404] | 10 to 100 µM
34 | NCc1cc(NC(=O)N2C[C@](O)(C(F)F)c3cc(F)ccc32)c2c(c1)C(=O)N[C@@H]2c1cc(F)ccc1Cl (single isomer, unassigned) [Compound I-2695] | 1 to 10 µM
35 | O=C(Nc1cccc2c1C(C1CCCC(O)C1)NC2=O)c1cc(F)cc(C(F)(F)F)c1 (mixture of isomers) [Compound I-2227] | 10 to 100 µM
36 | CC(C)C1CCN(C(=O)Nc2cccc3c2C(c2cc(F)ccc2Cl)NC3=O)C1 (mixture of isomers) [Compound I-2419] | 10 to 100 µM
37 | O=C1NC(c2cc(F)ccc2Cl)c2c(NC(=O)N3CCCC(F)C3)cc(Br)cc21 (stereo not drawn) [Compound I-491] | 10 to 100 µM
38 | N#Cc1cc(-c2cc(NC(=O)c3cc(F)cc(C(F)(F)F)c3)c3c(c2)C(=O)N[C@@H]3c2cc(F)ccc2Cl)cn2ncnc12 [Compound I-1880] | 0.5 to 1 µM
39 | O=C(Nc1cc(-c2ccc3ncnn3c2)cc2c1[C@H](c1cc(F)ccc1Cl)NC2=O)c1cc(F)cc(C(F)F)c1 (stereo in doubt) [Compound I-1171] | 0.1 to 0.5 µM
40 | O=C(Nc1cc(F)cc(C(F)(F)F)c1)c1cccc2c1C(c1cc(F)ccc1Cl)NC2=O (stereo not drawn) [Compound I-1353] | 1 to 10 µM
41 | C[C@@]1(O)CN(C(=O)Nc2cccc3c2[C@H](c2cc(F)ccc2Cl)NC3=O)c2ccccc21 (single isomer, unassigned) [Compound I-2206] | 10 to 100 µM
42 | Cn1ncc(C2NC(=O)c3cccc(NC(=O)c4nsc5ccccc45)c32)c1C(F)F (stereo not drawn) [Compound I-241] | 10 to 100 µM
43 | O=C(CCc1ccccc1)Nc1cccc2c1C(c1cc(F)ccc1Cl)NC2=O (stereo not drawn) [Compound I-2362] | 10 to 100 µM
44 | O=C1NC(c2cc(F)ccc2Cl)c2c(NC3CCCS(=O)(=O)C3)cc(-c3ccc4ncnn4c3)cc21 (stereo not drawn) [Compound I-2078] | 10 to 100 µM

Second part, the compound after the results:

Row | IC50 | Structure (SMILES)
45 | 0.1 to 0.5 µM | Cc1ccccc1C1NC(=O)c2cc(NS(C)(=O)=O)cc(NC(=O)c3cc(F)cc(C(F)(F)F)c3)c21 (stereo not drawn) [Compound I-56]
46 | 0.1 to 0.5 µM | Cc1ccccc1C1NC(=O)c2cccc(NC(=O)c3ccn4ccccc34)c21 (stereo not drawn) [Compound I-61]
47 | ≤ 0.1 µM | O=C(Nc1cc(-c2cn3ccncc3n2)cc2c1C(c1cc(F)ccc1Cl)NC2=O)c1cc(F)cc(C(F)(F)F)c1 (stereo not drawn) [Compound I-1300]
48 | ≤ 0.1 µM | Cc1ccccc1C1NC(=O)c2cc(C#N)cc(NC(=O)c3nsc4ccccc34)c21 (stereo not drawn) [Compound I-116]
49 | ≤ 0.1 µM | CN1CC(c2cc(NC(=O)c3cc(F)cc(C(F)(F)F)c3)c3c(c2)C(=O)NC3c2cc(F)ccc2Cl)CC1=O (racemic) [Compound I-1687]
50 | ≤ 0.1 µM | N#Cc1cnc2ncc(-c3cc(NC(=O)c4cc(F)cc(C(F)(F)F)c4)c4c(c3)C(=O)N[C@H]4c3cc(F)ccc3Cl)cn12 [Compound I-1859]
51 | ≤ 0.1 µM | N#CCn1cc(-c2cc(NC(=O)c3cc(F)cc(C(F)(F)F)c3)c3c(c2)C(=O)NC3c2cc(F)ccc2Cl)cn1 (stereo not drawn) [Compound I-1420]
52 | ≤ 0.1 µM | Cc1ccccc1[C@@H]1NC(=O)c2cc(N)cc(NC(=O)c3cc(F)cc(C(F)(F)F)c3)c21 [Compound I-66]
53 | ≤ 0.1 µM | CC(C)n1cc(-c2cc(NC(=O)c3cc(F)cc(C(F)(F)F)c3)c3c(n2)C(=O)NC3c2cc(F)ccc2Cl)ccc1=O (stereo not drawn) [Compound I-593]
54 | ≤ 0.1 µM | Cc1ccccc1C1NC(=O)c2c(C(=O)NCC(F)F)ccc(NC(=O)c3nsc4ccccc34)c21 (stereo not drawn) [Compound I-276]
55 | ≤ 0.1 µM | O=C1N[C@@H](c2cc(F)ccc2Cl)c2c(NC(=O)c3csc4ccccc34)cc(Br)cc21 [Compound I-734]
56 | ≤ 0.1 µM | O=C(CO)Nc1cc(NC(=O)c2cc(F)cc(C(F)(F)F)c2)c2c(c1)C(=O)N[C@H]2c1cc(F)ccc1Cl [Compound I-511]
57 | ≤ 0.1 µM | N#Cc1cnccc1-c1cc(NC(=O)c2cc(F)cc(C(F)(F)F)c2)c2c(n1)C(=O)NC2c1cc(F)ccc1Cl (stereo not drawn) [Compound I-549]
58 | ≤ 0.1 µM | O=C(Nc1cccc2c1C(c1cc(F)ccc1Cl)NC2=O)c1cc(F)c(F)c(C(F)(F)F)c1 (stereo not drawn) [Compound I-580]
59 | ≤ 0.1 µM | O=C(Nc1cc(B(O)O)cc2c1C(c1cc(F)ccc1Cl)NC2=O)c1cc(F)cc(Cl)c1 (stereo not drawn) [Compound I-385]
60 | ≤ 0.1 µM | O=C1NC(c2cc(F)c(F)cc2Cl)c2c(NC(=O)c3nsc4ccccc34)cccc21 (stereo not drawn) [Compound I-159]
61 | ≤ 0.1 µM | CC(C)(O)C#Cc1cc(NC(=O)c2cc(F)cc(C(F)(F)F)c2)c2c(c1)C(=O)NC2c1cc(F)ccc1Cl (stereo not drawn) [Compound I-1191]
62 | ≤ 0.1 µM | O=C(Nc1cc(-c2cn(C(F)F)cn2)cc2c1[C@H](c1cc(F)ccc1Cl)NC2=O)c1cc(F)cc(C(F)(F)F)c1 [Compound I-1919]
63 | ≤ 0.1 µM | O=C(Nc1cc(-c2cn3c(F)cnc3cn2)cc2c1[C@H](c1cc(F)ccc1Cl)NC2=O)c1cc(F)cc(C(F)(F)F)c1 [Compound I-1878]
64 | ≤ 0.1 µM | C[S+]([O-])c1ccccc1-c1cc(NC(=O)c2cc(F)cc(C(F)(F)F)c2)c2c(c1)C(=O)NC2c1cc(F)ccc1Cl (stereo not drawn) [Compound I-1150]
65 | ≤ 0.1 µM | O=C(Nc1cc(F)cc2c1C(c1cc(F)ccc1Cl)NC2=O)c1cc(F)cc(C(F)(F)F)c1 (stereo not drawn) [Compound I-641]
66 | ≤ 0.1 µM | Cc1ccccc1[C@@H]1NC(=O)c2cccc(NC(=O)c3nsc4ccccc34)c21 [Compound I-72]
